Source: US20180216057A1, “SYSTEM AND METHOD FOR GENERATING BIOLOGICAL TISSUE” (Yale University, priority 2017, published 2018)

Assays:
hiPSC-CM EHTs = experiment: Inotropic/lusitropic response of hiPSC-CM EHTs to β-adrenergic agonist; type: cell-based, human; conditions: 100 nM isoproterenol, 8% stretch, 30 minutes equilibration, vs baseline
Procedure: To determine twitch force development and kinetics, EHTs were measured as early as 5 days after seeding. Clips holding the EHT were ejected from the frame and picked up by motorized micromanipulators with claw-like extensions, leaving the muscle suspended between an anchoring attachment claw on one end and a force transducer mounted to a second claw on the other (FIG. 5D). The EHT was immersed in a temperature-controlled perfusion bath equipped with electrodes for field stimulus. Throughout measurements, scaffolds were perfused with freshly oxygenated Tyrode's solution (in mM: NaCl 140, KCl5.4, MgCl2 1, HEPES 25, glucose 10, and CaCl 1.8; pH adjusted to 7.35). Used Tyrode's solution was collected in a sealed chamber during testing and checked to ensure adequate consistency of pH. The maximum fluctuation never exceeded 0.05 pH units. All measurements were performed at 35° C. During biomechanical testing, NRVM-EHTs were electrically paced (12 V, 10 ms pulse width at 0.5 Hz) and the resulting twitch force was recorded (FIG. 5E). Human EHTs were paced at 1 Hz. Intracellular calcium concentrations were measured in some constructs using the ratiometric fluorescent indicator Fura-2 AM. Inotropic response. […] Tissues were equilibrated in Tyorde's solution for 30 minutes and measured at 8% stretch. […]

[1] = test system: EHTs from neonatal rat ventricular myocytes (NRVMs) seeded into laser-cut decellularized porcine myocardium; experiment: Twitch stress and kinetics of NRVM engineered heart tissues cultured with thyroid hormone T3; type: cell-based
Procedure: To determine twitch force development and kinetics, EHTs were measured as early as 5 days after seeding. Clips holding the EHT were ejected from the frame and picked up by motorized micromanipulators with claw-like extensions, leaving the muscle suspended between an anchoring attachment claw on one end and a force transducer mounted to a second claw on the other (FIG. 5D). The EHT was immersed in a temperature-controlled perfusion bath equipped with electrodes for field stimulus. Throughout measurements, scaffolds were perfused with freshly oxygenated Tyrode's solution (in mM: NaCl 140, KCl5.4, MgCl2 1, HEPES 25, glucose 10, and CaCl 1.8; pH adjusted to 7.35). Used Tyrode's solution was collected in a sealed chamber during testing and checked to ensure adequate consistency of pH. The maximum fluctuation never exceeded 0.05 pH units. All measurements were performed at 35° C. During biomechanical testing, NRVM-EHTs were electrically paced (12 V, 10 ms pulse width at 0.5 Hz) and the resulting twitch force was recorded (FIG. 5E). Human EHTs were paced at 1 Hz. Intracellular calcium concentrations were measured in some constructs using the ratiometric fluorescent indicator Fura-2 AM.
During mechanical testing, EHTs were stretched until reaching their culture length (6 mm) and again after applying 0.1 mm incremental increases until reaching a length of 6.6 mm (representing 10% total stretch). Ten contraction events were recorded and averaged at each level of stretch. The peak stress (mN/mm^2) was computed offline by dividing measured force by the cross-sectional area of the EHT. Characteristics of contraction kinetics were also computed offline, including the time to peak stress (TTP) and time from peak stress to 50% relaxation (RT50). The length-stress gain during isometric stretch (slope of the stretch-peak stress relationship, FIG. 13C) was calculated for each scaffold using engineering strain as the unit for stretch. The force-frequency relationship was determined while keeping EHTs at 10% stretch and taking records at 0.5, 1, 2, 4, 6, and 8 Hz. During force-frequency measurements, pacing capture of EHTs was ensured by checking real time oscilloscope readings of the force transducer voltage output.
Thyroid hormone speeds contractile kinetics. To assess the sensitivity of this system towards changes in contractility and twitch kinetics, EHTs were subjected to a pharmacological perturbation known to alter the intrinsic properties of cardiac muscle. In rodents, an increase in thyroid hormone (T3) promotes expression of the faster α isoform of myosin heavy chain23. […] EHTs were characterized functionally and then returned to culture conditions at days 5, 8, 12, and 15.

[2] = 15 days old NRVM EHTs after T3 treatment, 2 Hz pacing

SMILES	lusitropic response (twitch kinetics TTP and RT50) (hiPSC-CM EHTs)	RT50 [1, 2]	TTP [1, 2] [ms]	time to peak stress (TTP) ([1]; NRVM EHTs, T3 10 ng/ml in culture, after 15 days in culture, untreated 113±6 ms) [ms]	time from peak stress to 50% relaxation (RT50) ([1]; NRVM EHTs, T3 10 ng/ml in culture, after 15 days in culture, untreated 130±3 ms) [ms]	effect on evolution of peak stress development across time points ([1]; T3 10 ng/ml, days 5, 8, 12, 15, 2-way repeated measures ANOVA)	effect on rates of contraction and relaxation vs non-treated control ([1]; T3 10 ng/ml, every time point analyzed (days 5, 8, 12, 15), p<0.001)
CC(C)NCC(O)c1ccc(O)c(O)c1 (stereo not shown) [Isoproterenol]	shorter TTP and RT50	–	–	–	–	–	–
N[C@@H](Cc1cc(I)c(Oc2ccc(O)c(I)c2)c(I)c1)C(=O)O [T3]	–	around 59 ms	83	77 ± 2	63 ± 3	no significant effect	significantly accelerated rates of contraction and relaxation
